Assay results from paper PMC12448892 (2025).

Key:
[1] = tested on: ADH1 5_G MUT (DNA, G4) GTGGCCGGTAGCGAGTGATAGCGAGTGAAAGACGATCGCTATCGTGCCGTAACGAGGAAATGTGAGGTTGGGGG; assay: circular dichroism; conditions: 100 mM KCl; 10 mM Tris pH 7.5, 25 °C; 5 μM DNA, 10 μM PhenDC3; slight broadening of spectra
[2] = tested on: ADH1 WT (DNA, G4) GGGGCCGGTAGCGAGTGATAGCGAGGGAAAGACGATCGCTATCGGGCCGTAAGGAGGAAATGGGAGGTTGGGGG; assay: circular dichroism; conditions: 100 mM KCl; 10 mM Tris pH 7.5, 25 °C; 5 μM DNA, 10 μM PhenDC3; slight broadening of spectra
[3] = tested on: ADH1 4_G MUT (DNA, G4) GTGGCCGGTAGCGAGTGATAGCGAGTGAAAGACGATCGCTATCGTGCCGTAAGGAGGAAATGTGAGGTTGGGGG; assay: circular dichroism; conditions: 100 mM KCl; 10 mM Tris pH 7.5, 25 °C; 5 μM DNA, 10 μM PhenDC3; slight broadening of spectra
[4] = tested on: ADH1 WT (DNA, G4) GGGGCCGGTAGCGAGTGATAGCGAGGGAAAGACGATCGCTATCGGGCCGTAAGGAGGAAATGGGAGGTTGGGGG; assay: ThT fluorescence titration; conditions: 10 mM KCl; 10 mM Tris pH 7.5, room temperature; 0.5 μM ThT; apparent
[5] = tested on: ADH1 4_G MUT (DNA, G4) GTGGCCGGTAGCGAGTGATAGCGAGTGAAAGACGATCGCTATCGTGCCGTAAGGAGGAAATGTGAGGTTGGGGG; assay: ThT fluorescence titration; conditions: 10 mM KCl; 10 mM Tris pH 7.5, room temperature; 0.5 μM ThT; apparent
[6] = tested on: ADH1 5_G MUT (DNA, G4) GTGGCCGGTAGCGAGTGATAGCGAGTGAAAGACGATCGCTATCGTGCCGTAACGAGGAAATGTGAGGTTGGGGG; assay: ThT fluorescence titration; conditions: 10 mM KCl; 10 mM Tris pH 7.5, room temperature; 0.5 μM ThT; apparent

Row | Structure (SMILES) | binding [1] | binding [2] | binding [3] | k [4] [µM] | k [5] [µM] | k [6] [µM]
1 | C[n+]1cc(NC(=O)c2ccc3ccc4ccc(C(=O)Nc5cc6ccccc6[n+](C)c5)nc4c3n2)cc2ccccc21 | yes | yes | yes |  |  | 
2 | Cc1ccc2c(c1)sc(-c1ccc(N(C)C)cc1)[n+]2C |  |  |  | 0.65 ± 0.04 | 0.76 ± 0.06 | 0.89 ± 0.13
